The source of these data is patent publication US4663309A, “Novel peptide hormones with calcitonin-like activity” (University Patents, Inc., priority 1985, dated 1987).

This test relates to rat kidney adenylate cyclase. As to the kind of experiment: Peptide stimulation of adenylate cyclase activity in crude kidney cortical membranes. Format: biochemical. The settings on record: 10 min at 37° C. Here is the method: Crude rats brain membranes were prepared as described by Nakamuta et al., supra, using 250-300 gm male Sprague-Dawley rats (Charles River Breeding Laboratories). Membranes were either used immediately or stored at -80° C. for no more than three days. Crude rat kidney membranes used for binding studies and adenylate cyclase assays were prepared as described by Schwartz, K. E., R. C. Orlowski and R. Marcus, Endocrinology 108:831 (1981) with a minor modification. The dissected kidney cortices were first homogenized briefly with a Polytron™ (Brinkman Instruments) at low speed ("5") before complete homogenization with a loose-fitting Wheaton Dounce homogenizer (American Scientific Products, MacGaw Park, IL, pestle "B"). Protein concentrations were determined using Coomassie Brilliant Blue G-250 (Sedmak, J. J. and S. E. Grossberg, Anal. Biochem. 83:544 (1977)) and crystallized BSA (Sigma Chemical Co., St. Louis, MO) as the standard. All preparations of kidney membranes were carried out at 4° C. and the membranes were used immediately for binding studies or adenylate cyclase assays.
Peptide stimulation of adenylate cyclase activity in crude kidney cortical membranes was measured using methods described by Marcus, R. and G. D. Aurbach, Biochim. Biophys. Acta 242:410 (1971). […]

Structures are written as SMILES. Bridge positions count the residues as written; N and C are the ends. Peptide text beside a SMILES is read from it.

For the compound `CC(C)C[C@H](NC(=O)[C@H](CCCCN)NC(=O)[C@H](CCC(N)=O)NC(=O)[C@H](CC(C)C)NC(=O)[C@H](CCC(N)=O)NC(=O)[C@H](CCC(N)=O)NC(=O)[C@H](CC(C)C)NC(=O)[C@H](CC(C)C)NC(=O)[C@@H]1CSSC[C@H](N)C(=O)N[C@@H](CO)C(=O)N[C@@H](CC(N)=O)C(=O)N[C@@H](CC(C)C)C(=O)N[C@@H](CO)C(=O)N[C@@H]([C@@H](C)O)C(=O)N1)C(=O)N[C@@H](CC(C)C)C(=O)N[C@@H](CCC(N)=O)C(=O)N[C@@H](CCCCN)C(=O)N[C@@H](CC(C)C)C(=O)N[C@@H](CCCCN)C(=O)N[C@@H](CCC(N)=O)C(=O)N[C@@H](Cc1ccc(O)cc1)C(=O)N1CCC[C@H]1C(=O)N[C@@H](CCCNC(=N)N)C(=O)N[C@H](C(=O)N[C@@H](CC(N)=O)C(=O)N[C@H](C(=O)NCC(=O)N[C@@H](CO)C(=O)NCC(=O)N[C@H](C(=O)N1CCC[C@H]1C(N)=O)[C@@H](C)O)[C@@H](C)O)[C@@H](C)O` [MCT-II] (H-CSNLSTCLLQQLQKLLQKLKQYPRTNTGSGTP-NH2; disulfide 1-7; N-terminus assumed), the “Stimulation of adenylate cyclase over basal activity” value is reported as “stimulated adenylate cyclase over basal activity”.
